Data: patent US12252524B2, “GIP/GLP1 co-agonist compounds” (Eli Lilly and Company, priority 2018, dated 2025)
Numbered stars: 1 amine (or outer) side, 2 acyl side, 3 side chain; on linkers, the order of the positions; unused ones are H or OH. Square brackets hold non-standard residues; d marks the D form. Side chains are listed from the residue outwards. Peptide text beside a SMILES is read from it. * marks the point of attachment. C20 diacid = O=C(O)CCCCCCCCCCCCCCCCCCC(=O)*; C18 diacid = O=C(O)CCCCCCCCCCCCCCCCC(=O)*; αMePhe(2-F) = C[C@](N)(Cc1ccccc1F)C(=O)O; γGlu = O=C(O)[C@H](CCC(=O)[*:2])N[*:1]; αMeL = CC(C)C[C@](C)(N)C(=O)O; αMeK = C[C@](N)(CCCCN)C(=O)O; Dap = NC[C@H](N)C(=O)O; AEEA = NCCOCCOCC(=O)O; Aib = CC(C)(N)C(=O)O

How the values were obtained:
[1] = biological target: human GLP-1 receptor (GLP-1R) (Homo sapiens, UniProt P43220); experiment: cAMP pharmacological functional assay in presence of casein, hGLP-1R; type: cell-based; conditions: HEK293 cells expressing hGLP-1R, 0.1% Casein, geometric mean; read-out: hGLP1R cAMP Rel EC50 nM (SEM, n)
[2] = biological target: human GLP-1R (Homo sapiens, UniProt P43220); experiment: [125I]-GLP-1 binding (SPA), human GLP-1 receptor; set-up: expressed in transfected cells; crude membranes; conditions: read-out: hGLP1R Ki, (nM) (SEM, n)
How it was run: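 Crude-membrane binding assay; one membrane prep included 1 mM MgCl2 and 25 units/ml DNAse I during lysis. Assay buffer at pH 7.4 contains 0.1% (w/v) bacitracin and 0.003% (w/v) TWEEN-20. Ki is reported as geometric mean.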

[3] = biological target: T1, human GIP receptor (Homo sapiens, UniProt P48546); experiment: [125I]-GIP binding (SPA), human GIP receptor; conditions: read-out: hGIPR Ki, nM (SEM, n)
T1 construct: expressed in transfected cells; crude membranes
T1 sequence (P48546 22-466): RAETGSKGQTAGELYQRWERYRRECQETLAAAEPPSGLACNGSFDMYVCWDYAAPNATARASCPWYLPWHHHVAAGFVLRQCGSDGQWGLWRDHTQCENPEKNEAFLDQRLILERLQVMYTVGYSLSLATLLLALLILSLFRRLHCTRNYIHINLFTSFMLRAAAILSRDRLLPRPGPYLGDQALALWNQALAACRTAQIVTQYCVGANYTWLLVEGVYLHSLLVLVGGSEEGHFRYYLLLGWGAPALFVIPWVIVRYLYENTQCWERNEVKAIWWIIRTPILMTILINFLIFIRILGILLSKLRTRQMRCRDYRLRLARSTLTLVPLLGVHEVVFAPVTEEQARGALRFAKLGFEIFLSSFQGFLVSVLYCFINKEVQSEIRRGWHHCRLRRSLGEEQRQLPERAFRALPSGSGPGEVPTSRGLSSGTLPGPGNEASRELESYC

[4] = biological target: T2, human Gcg receptor (Homo sapiens, UniProt P47871); experiment: [125I]-Glucagon binding (SPA), human Gcg receptor; conditions: read-out: hGLcgR Ki, nM (SEM, n)
T2 construct: expressed in transfected cells; crude membranes
How it was run: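 Scintillation counts are taken after membranes and WGA beads incubate and settle for 12 hours at room temperature. Buffer is 25 mM HEPES, pH 7.4, with CaCl2, MgCl2, bacitracin and Tween-20. Ki values, from four-parameter IC50 fits, are geometric means over independent days.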

[5] = biological target: T3, gastric inhibitory peptide receptor (GIPR) (Homo sapiens, UniProt P48546); experiment: cAMP pharmacological functional assay in presence of casein, hGIPR; type: cell-based; conditions: HEK293 cells expressing hGIPR, 0.1% Casein, geometric mean; read-out: hGIPR cAMP Rel EC50 nM (SEM, n)
T3 sequence (P48546 22-466): T1 sequence (P48546 22-466)

Chain of human GLP-1 receptor (GLP-1R) (P43220 24-463): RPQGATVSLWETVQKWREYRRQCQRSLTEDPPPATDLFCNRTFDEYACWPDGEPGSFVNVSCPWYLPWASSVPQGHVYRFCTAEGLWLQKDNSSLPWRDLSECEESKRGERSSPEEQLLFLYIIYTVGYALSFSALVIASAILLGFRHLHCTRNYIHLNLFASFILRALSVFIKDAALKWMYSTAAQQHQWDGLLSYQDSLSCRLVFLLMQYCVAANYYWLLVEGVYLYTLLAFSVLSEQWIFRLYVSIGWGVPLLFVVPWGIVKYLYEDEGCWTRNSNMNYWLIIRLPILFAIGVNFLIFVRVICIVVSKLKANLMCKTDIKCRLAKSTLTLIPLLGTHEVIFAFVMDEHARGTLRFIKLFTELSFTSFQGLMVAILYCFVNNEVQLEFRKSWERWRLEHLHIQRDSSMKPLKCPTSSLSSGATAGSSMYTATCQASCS
Chain of human GLP-1R (P43220 24-463): as above
T2 sequence (P47871 26-477): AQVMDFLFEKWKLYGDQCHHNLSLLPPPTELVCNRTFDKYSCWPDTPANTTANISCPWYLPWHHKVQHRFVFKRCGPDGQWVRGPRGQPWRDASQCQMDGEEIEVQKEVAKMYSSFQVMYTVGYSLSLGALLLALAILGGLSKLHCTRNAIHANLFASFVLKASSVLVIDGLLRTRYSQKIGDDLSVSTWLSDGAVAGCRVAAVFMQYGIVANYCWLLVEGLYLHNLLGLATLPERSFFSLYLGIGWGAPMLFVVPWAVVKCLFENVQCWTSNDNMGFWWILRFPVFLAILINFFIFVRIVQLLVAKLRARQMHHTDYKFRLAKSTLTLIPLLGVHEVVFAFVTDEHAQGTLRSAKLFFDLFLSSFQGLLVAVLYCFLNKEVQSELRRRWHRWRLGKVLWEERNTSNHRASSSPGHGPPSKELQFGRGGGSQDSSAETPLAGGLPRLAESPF

| SMILES | EC50 [1] [nM] | Ki [2] [nM] | Ki [3] [nM] | Ki [4] [nM] | EC50 [5] [nM] |
| --- | --- | --- | --- | --- | --- |
| CC[C@H](C)[C@H](NC(=O)[C@H](CCCCN)NC(=O)[C@H](CC(=O)O)NC(=O)[C@H](CC(C)C)NC(=O)[C@H](CC(C)C)NC(=O)[C@@H](NC(=O)[C@H](CO)NC(=O)[C@H](Cc1ccc(O)cc1)NC(=O)[C@H](CC(=O)O)NC(=O)[C@H](CO)NC(=O)[C@@H](NC(=O)[C@H](Cc1ccccc1)NC(=O)[C@@H](NC(=O)CNC(=O)[C@H](CCC(=O)O)NC(=O)C(C)(C)NC(=O)[C@@H](N)Cc1ccc(O)cc1)[C@@H](C)O)[C@@H](C)O)[C@@H](C)CC)C(=O)N[C@@H](C)C(=O)N[C@@H](CCC(N)=O)C(=O)N[C@@H](CCCCNC(=O)COCCOCCNC(=O)COCCOCCNC(=O)CC[C@H](NC(=O)CCCCCCCCCCCCCCCCCCC(=O)O)C(=O)O)C(=O)N[C@@H](CCC(=O)O)C(=O)N[C@@H](Cc1ccccc1)C(=O)N[C@H](C(=O)N[C@@H](CCC(N)=O)C(=O)N[C@@H](Cc1ccc(O)cc1)C(=O)N[C@@H](CC(C)C)C(=O)N[C@@H](CC(C)C)C(=O)N[C@@H](CCC(=O)O)C(=O)NC(C)(C)C(=O)NCC(=O)N1CCC[C@H]1C(=O)N[C@@H](CO)C(=O)N[C@@H](CO)C(=O)NCC(=O)N[C@@H](C)C(=O)N1CCC[C@H]1C(=O)N1CCC[C@H]1C(=O)N1CCC[C@H]1C(=O)N[C@@H](CO)C(N)=O)[C@@H](C)CC [Example 14] (H-Y[Aib]EGTFTSDYSILLDKIAQK([AEEA-AEEA-γGlu-C20 diacid])EFIQYLLE[Aib]GPSSGAPPPS-NH2; N-terminus assumed) | 1.87 | 29.6 | 0.0494 | 160 | 0.284 |
| CC[C@H](C)[C@H](NC(=O)[C@H](CC(C)C)NC(=O)[C@H](Cc1ccc(O)cc1)NC(=O)[C@H](CCC(=O)O)NC(=O)[C@@H](NC(=O)[C@H](Cc1ccccc1)NC(=O)[C@H](C)NC(=O)C(C)(C)NC(=O)[C@H](CCC(N)=O)NC(=O)[C@H](C)NC(=O)[C@H](CCCCNC(=O)COCCOCCNC(=O)COCCOCCNC(=O)CC[C@H](NC(=O)CCCCCCCCCCCCCCCCC(=O)O)C(=O)O)NC(=O)[C@H](CCCCN)NC(=O)[C@H](CC(=O)O)NC(=O)[C@H](CC(C)C)NC(=O)[C@H](CC(C)C)NC(=O)[C@@H](NC(=O)[C@H](CO)NC(=O)[C@H](Cc1ccc(O)cc1)NC(=O)[C@H](CC(=O)O)NC(=O)[C@H](CO)NC(=O)[C@@H](NC(=O)[C@H](Cc1ccccc1)NC(=O)[C@@H](NC(=O)CNC(=O)[C@H](CCC(=O)O)NC(=O)C(C)(C)NC(=O)[C@@H](N)Cc1ccc(O)cc1)[C@@H](C)O)[C@@H](C)O)[C@@H](C)CC)[C@@H](C)CC)C(=O)N[C@@H](C)C(=O)NCC(=O)NCC(N)=O [Example 273] (H-Y[Aib]EGTFTSDYSILLDKK([AEEA-AEEA-γGlu-C18 diacid])AQ[Aib]AFIEYLIAGG-NH2) | 0.0352 | 1.13 | 0.0698 | 724 | 0.079 |
| CC[C@H](C)[C@H](NC(=O)[C@H](CC(C)C)NC(=O)[C@H](Cc1ccc(O)cc1)NC(=O)[C@H](CCC(=O)O)NC(=O)[C@@H](NC(=O)[C@H](Cc1ccccc1)NC(=O)[C@H](C)NC(=O)C(C)(C)NC(=O)[C@H](CCC(N)=O)NC(=O)[C@H](C)NC(=O)[C@H](CCCCNC(=O)COCCOCCNC(=O)COCCOCCNC(=O)CC[C@H](NC(=O)CCCCCCCCCCCCCCCCCCC(=O)O)C(=O)O)NC(=O)[C@H](CCCCN)NC(=O)[C@H](CC(=O)O)NC(=O)[C@H](CC(C)C)NC(=O)[C@H](CC(C)C)NC(=O)[C@@H](NC(=O)[C@H](CO)NC(=O)[C@H](Cc1ccc(O)cc1)NC(=O)[C@H](CC(=O)O)NC(=O)[C@H](CO)NC(=O)[C@@H](NC(=O)[C@H](Cc1ccccc1)NC(=O)[C@@H](NC(=O)CNC(=O)[C@H](CCC(=O)O)NC(=O)C(C)(C)NC(=O)[C@@H](N)Cc1ccc(O)cc1)[C@@H](C)O)[C@@H](C)O)[C@@H](C)CC)[C@@H](C)CC)C(=O)N[C@@H](CCC(=O)O)C(=O)NCC(=O)NCC(=O)N1CCC[C@H]1C(=O)N[C@@H](CO)C(=O)N[C@@H](CO)C(=O)NCC(N)=O [Example 50] (H-Y[Aib]EGTFTSDYSILLDKK([AEEA-AEEA-γGlu-C20 diacid])AQ[Aib]AFIEYLIEGGPSSG-NH2) | 0.0961 | 4.71 | 0.0568 | 220 | 0.0794 |
| CC[C@H](C)[C@H](NC(=O)[C@H](CC(C)C)NC(=O)[C@H](Cc1ccc(O)cc1)NC(=O)[C@@H](CCC(=O)O)NC(=O)[C@@H](NC(=O)[C@H](Cc1ccccc1)NC(=O)[C@H](CCC(=O)O)NC(=O)C(C)(C)NC(=O)[C@H](CCC(N)=O)NC(=O)[C@H](C)NC(=O)[C@H](CCCCNC(=O)COCCOCCNC(=O)COCCOCCNC(=O)CC[C@H](NC(=O)CCCCCCCCCCCCCCCCCCC(=O)O)C(=O)O)NC(=O)[C@H](CN)NC(=O)[C@H](CC(=O)O)NC(=O)[C@H](CC(C)C)NC(=O)[C@](C)(CC(C)C)NC(=O)[C@@H](NC(=O)[C@H](CO)NC(=O)[C@H](Cc1ccc(O)cc1)NC(=O)[C@H](CC(=O)O)NC(=O)[C@H](CO)NC(=O)[C@@H](NC(=O)[C@](C)(Cc1ccccc1F)NC(=O)[C@@H](NC(=O)CNC(=O)[C@H](CCC(=O)O)NC(=O)C(C)(C)NC(=O)[C@@H](N)Cc1ccc(O)cc1)[C@@H](C)O)[C@@H](C)O)[C@@H](C)CC)[C@@H](C)CC)C(=O)N[C@@H](CCC(=O)O)C(=O)NCC(=O)NCC(=O)N1CCC[C@H]1C(=O)N[C@@H](CO)C(=O)N[C@@H](CO)C(=O)NCC(=O)N[C@@H](C)C(=O)N1CCC[C@H]1C(=O)N1CCC[C@H]1C(=O)N1CCC[C@H]1C(=O)N[C@@H](CO)C(N)=O [Example 218] (H-Y[Aib]EGT[αMePhe(2-F)]TSDYSI[αMeL]LD[Dap]K([AEEA-AEEA-γGlu-C20 diacid])AQ[Aib]EFI[dE]YLIEGGPSSGAPPPS-NH2) | 0.0423 | 2.54 | 0.0593 | 270 | 0.0413 |
| CC[C@H](C)[C@H](NC(=O)[C@H](Cc1ccccc1)NC(=O)[C@H](C)NC(=O)[C@](C)(CCCCN)NC(=O)[C@H](CCC(N)=O)NC(=O)[C@H](C)NC(=O)[C@H](CCCCNC(=O)COCCOCCNC(=O)COCCOCCNC(=O)CC[C@H](NC(=O)CCCCCCCCCCCCCCCCCCC(=O)O)C(=O)O)NC(=O)[C@H](CCC(=O)O)NC(=O)[C@H](CC(=O)O)NC(=O)[C@H](CC(C)C)NC(=O)[C@](C)(CC(C)C)NC(=O)[C@@H](NC(=O)[C@H](CO)NC(=O)[C@H](Cc1ccc(O)cc1)NC(=O)[C@H](CC(=O)O)NC(=O)[C@H](CO)NC(=O)[C@@H](NC(=O)[C@H](Cc1ccccc1)NC(=O)[C@@H](NC(=O)CNC(=O)[C@H](CCC(=O)O)NC(=O)C(C)(C)NC(=O)[C@@H](N)Cc1ccc(O)cc1)[C@@H](C)O)[C@@H](C)O)[C@@H](C)CC)C(=O)N[C@@H](CCC(=O)O)C(=O)N[C@@H](Cc1ccc(O)cc1)C(=O)N[C@@H](CC(C)C)C(=O)N[C@@H](CC(C)C)C(=O)N[C@@H](CCC(=O)O)C(=O)NC(C)(C)C(=O)NCC(=O)N1CCC[C@H]1C(=O)N[C@@H](CO)C(=O)N[C@@H](CO)C(=O)NCC(=O)N[C@@H](C)C(=O)N1CCC[C@H]1C(=O)N1CCC[C@H]1C(=O)N1CCC[C@H]1C(=O)N[C@@H](CO)C(N)=O [Example 22] (H-Y[Aib]EGTFTSDYSI[αMeL]LDEK([AEEA-AEEA-γGlu-C20 diacid])AQ[αMeK]AFIEYLLE[Aib]GPSSGAPPPS-NH2; N-terminus assumed) | 0.206 | 23.1 | 0.624 | 53.4 | 0.0842 |
